Data published in the OligoGym collection.
After the bases stand the sugars from the 5' end (letter, count) and the backbone: PS all phosphorothioate, else s phosphorothioate and o phosphodiester by linkage. Methylation of C is not given here. l = locked nucleic acid (LNA); d = 2'-deoxy (DNA)

Target: SNHG14
Details: ASO
[1] = Mouse Primary Neuronal Cell, 0.005 µM

Sequence | target mRNA inhibition (Human Neuronal Cell, 0.2 µM) | target mRNA inhibition (Human Neuronal Cell, 1 µM) | target mRNA inhibition (Human Neuronal Cell, 7.5 µM) | other results
ATATAAGCTTACCTCA (sugars l4 d10 l2, PS) | 56% | 68% | – | –
ATATTGATTCAATTCCC (sugars l1 d1 l3 d10 l2, PS) | – | – | 70% | –
ATATTGATTCAATTCCC (sugars l1 d2 l1 d7 l6, PS) | – | – | 51% | –
ATATTGATTCAATTCCC (sugars l1 d3 l1 d8 l4, PS) | – | – | 67% | –
ATCATCAGTTACATCA (sugars l4 d10 l2, PS) | 62% | 63% | – | –
ATCATTCTCAACAATTA (sugars l4 d7 l1 d1 l4, PS) | – | – | 53% | –
ATCATTCTCAACAATTAA (sugars l4 d8 l6, PS) | – | – | 44% | –
ATCATTCTCAACAATTAAA (sugars l4 d1 l1 d8 l5, PS) | – | – | 49% | –
ATCATTTCATATTACTA (sugars l3 d11 l3, PS) | 43% | 56% | – | –
ATCCTGTTAATACCAT (sugars l2 d10 l4, PS) | 45% | 39% | – | –
ATCTCATGACCACCTAA (sugars l1 d12 l4, PS) | – | – | 48% | –
ATCTCATGACCACCTAA (sugars ldlllddddddddldll, PS) | – | – | 66% | –
ATCTGAATCAAACCTT (sugars l2 d10 l4, PS) | 45% | 45% | – | –
ATCTTTCCATTTATTTCC (sugars l3 d12 l3, PS) | 52% | 56% | – | –
ATCTTTCCATTTATTTCCA (sugars ldddlddddddddldddll, PS) | – | – | 42% | –
ATCTTTCCATTTATTTCCAT (sugars lddlddddddddddddldll, PS) | – | – | 40% | –
ATGCTTCTAACTAACA (sugars l4 d10 l2, PS) | 25% | 46% | – | –
ATTCAACCCTAATCAC (sugars l2 d10 l4, PS) | 16% | 26% | – | –
ATTGATTCAATTCCCTT (sugars l1 d1 l2 d9 l4, PS) | – | – | 67% | –
ATTGATTCAATTCCCTT (sugars l3 d10 l1 d1 l2, PS) | – | – | 70% | –
ATTGATTCAATTCCCTT (sugars ldddldddddddlldll, PS) | – | – | 57% | –
ATTGATTCAATTCCCTT (sugars lddldddddddlldlll, PS) | – | – | 61% | –

Sequence | target mRNA inhibition (Human Neuronal Cell, 0.2 µM) | target mRNA inhibition (Human Neuronal Cell, 1 µM) | target mRNA inhibition (Human Neuronal Cell, 7.5 µM) | other results
ATTGATTCAATTCCCTT (sugars lddlldddddddlldll, PS) | – | – | 59% | –
ATTTAAATTTCCAAACATT (sugars l2 d13 l4, PS) | 11% | -17% | – | –
ATTTACACTTAATTATACTT (sugars ldlllldddddddldlddll, PS) | – | – | 45% | –
ATTTACACTTAATTATACTT (sugars llddlllddddddlddllll, PS) | – | – | 38% | –
ATTTCATTAAGTCACC (sugars l2 d10 l4, PS) | 46% | 59% | – | –
ATTTTTTTCTTACTATCTTC (sugars ldlllddddddddlddddll, PS) | – | – | 56% | –
CAAAGATCATTCTCAACA (sugars l1 d1 l2 d8 l6, PS) | – | – | 58% | –
CAAAGATCATTCTCAACA (sugars lllldldddddddlddll, PS) | – | – | 63% | –
CAAATACAGATTATCC (sugars l2 d10 l4, PS) | 49% | 59% | – | –
CAACATTATTAACCACCTT (sugars l3 d1 l1 d11 l3, PS) | – | – | 61% | –
CAACATTATTAACCACCTTA (sugars l1 d2 l2 d13 l2, PS) | – | – | 47% | –
CAACATTATTAACCACCTTA (sugars l4 d10 l1 d2 l3, PS) | – | – | 55% | –
CAACATTATTAACCACCTTA (sugars lddddllddddddddlddll, PS) | – | – | 47% | –
CACATTATATTTAAACTAT (sugars l2 d13 l4, PS) | 6% | 14% | – | –
CACTGATTTCCTTAAAC (sugars l4 d11 l2, PS) | 40% | 43% | – | –
CATCTGCTACATATTC (sugars l4 d10 l2, PS) | 49% | 58% | – | –
CATGACACTTACATAA (sugars l3 d10 l3, PS) | 31% | 45% | – | –
CATTCAACCCTAATCA (sugars l3 d10 l3, PS) | 26% | 38% | – | –
CATTCTATCTGCCAAA (sugars l2 d10 l4, PS) | 55% | 64% | – | –
CCAACATAGATCCTCT (sugars l2 d10 l4, PS) | 55% | 67% | – | –
CCACCTTAAGTAACAT (sugars l3 d10 l3, PS) | 30% | 43% | – | –
CCATGCTACATAAACC (sugars l4 d10 l2, PS) | 36% | 50% | – | –

Sequence | target mRNA inhibition (Human Neuronal Cell, 0.2 µM) | target mRNA inhibition (Human Neuronal Cell, 1 µM) | target mRNA inhibition (Human Neuronal Cell, 7.5 µM) | other results
CCATTATTTCTTAAATA (sugars l4 d11 l2, PS) | -8% | 8% | – | –
CCATTTATTTCCATTTATTT (sugars ldddldddddddddldldll, PS) | – | – | 56% | –
CCCTCAAAGTAATTTC (sugars l4 d10 l2, PS) | 21% | 20% | – | –
CCTAAGCTCCATATTT (sugars l4 d10 l2, PS) | 39% | 45% | – | –
CCTACATCTCATACTT (sugars l3 d10 l3, PS) | -11% | 3% | – | target mRNA inhibition (Human Neuronal Cell, 5 µM): 13%; target mRNA inhibition [1]: 93.4%
CCTACATCTCATACTTG (sugars l2 d13 l2, PS) | 9% | 10% | – | target mRNA inhibition (Human Neuronal Cell, 5 µM): 36%; target mRNA inhibition [1]: 79.8%
CCTACATCTCATACTTG (sugars l3 d11 l3, PS) | – | – | – | target mRNA inhibition [1]: 96%
CCTACATCTCATACTTGC (sugars l2 d13 l3, PS) | – | – | – | target mRNA inhibition [1]: 96.8%
CCTACATCTCATACTTGC (sugars l3 d12 l3, PS) | -39% | -21% | – | target mRNA inhibition (Human Neuronal Cell, 5 µM): -27%
CCTCTGACAACCATTA (sugars l4 d10 l2, PS) | 30% | 31% | – | –
CCTTAATCTGTATCAC (sugars l3 d10 l3, PS) | 38% | 52% | – | –
CCTTCCCTTTGATAACA (sugars l2 d12 l3, PS) | 43% | 62% | – | –
CGAATCTTGACATACAGG (sugars l3 d12 l3, PS) | 8% | 19% | – | target mRNA inhibition (Human Neuronal Cell, 5 µM): 14%
CTAACTGTTTCTCAATT (sugars l3 d11 l3, PS) | 29% | 32% | – | –
CTAATCCTATTCCAAC (sugars l2 d10 l4, PS) | 33% | 49% | – | –
CTAATGCAATAACCCA (sugars l2 d10 l4, PS) | 45% | 34% | – | –
CTACATCTCATACTTGC (sugars l3 d11 l3, PS) | -4% | -27% | – | target mRNA inhibition (Human Neuronal Cell, 5 µM): 1%; target mRNA inhibition [1]: 94.6%
CTATTCAATAAACTAAACA (sugars l4 d13 l2, PS) | -6% | -9% | – | –
CTCAAAGATCATTCTCA (sugars l1 d2 l1 d7 l6, PS) | – | – | 16% | –
CTCAAAGATCATTCTCA (sugars l3 d10 l1 d1 l2, PS) | – | – | 61% | –
CTCAAAGATCATTCTCA (sugars ldldldddddddlldll, PS) | – | – | 65% | –
CTCATCCCTCCAAGAAA (sugars l4 d11 l2, PS) | -3% | -15% | – | target mRNA inhibition (Human Neuronal Cell, 5 µM): -9%; target mRNA inhibition [1]: 90.9%

Sequence | target mRNA inhibition (Human Neuronal Cell, 0.2 µM) | target mRNA inhibition (Human Neuronal Cell, 1 µM) | target mRNA inhibition (Human Neuronal Cell, 7.5 µM) | other results
CTCATTTACATTATTATT (sugars l4 d12 l2, PS) | 34% | 44% | – | –
CTCCATATTTAAATCC (sugars l4 d10 l2, PS) | 8% | 21% | – | –
CTCCTTTATGACTCCA (sugars l3 d11 l2, PS) | 50% | 56% | – | –
CTCCTTTATGACTCCAA (sugars l4 d11 l2, PS) | 41% | 59% | – | –
CTCTAATCCTATTCCA (sugars l3 d10 l3, PS) | 50% | 58% | – | –
CTCTACAACAGTCCCA (sugars l3 d11 l2, PS) | 53% | 51% | – | –
CTCTGCAATACACCAA (sugars l2 d10 l4, PS) | 54% | 55% | – | –
CTCTTTAGATTCATCC (sugars l4 d10 l2, PS) | 56% | 48% | – | –
CTCTTTGTCAAATACT (sugars l4 d10 l2, PS) | 33% | 13% | – | –
CTGCTTAATTATATCA (sugars l4 d10 l2, PS) | 35% | 38% | – | –
CTGTATACACCATCCCA (sugars l1 d3 l1 d10 l2, PS) | – | – | 65% | –
CTGTATACACCATCCCA (sugars l1 d10 l1 d3 l2, PS) | – | – | 54% | –
CTGTATACACCATCCCA (sugars ldddlddddddddldll, PS) | – | – | 68% | –
CTGTATACACCATCCCA (sugars ldldlddddddddddll, PS) | – | – | 61% | –
CTGTTTATACCCTTTCCA (sugars l1 d4 l1 d10 l2, PS) | – | – | 58% | –
CTGTTTATACCCTTTCCA (sugars l1 d12 l1 d2 l2, PS) | – | – | 58% | –
CTTCACACCTATTATATA (sugars l2 d12 l4, PS) | 7% | 32% | – | –
CTTTAATGCTTCTAAC (sugars l2 d10 l4, PS) | -3% | 26% | – | –
CTTTACTCTGCAATACA (sugars l2 d11 l4, PS) | 49% | 59% | – | –
